The record followed here is patent US5554653A, “Inhibitors of HIV protease useful for the treatment of AIDS” (Eli Lilly and Company, priority 1992, dated 1996).

The first assay addresses T1, HIV-1 protease (Human immunodeficiency virus type 1 group M subtype B, UniProt P04585).
T1 construct: Purified HIV-1 protease was obtained as described above; made in house; host or cells: E. coli K12 L507/pHP10D (NRRL B-18560)
The assay can be described thus: biochemical. It is filed as biochemical. As to conditions: read-out: Fluorescence Assay IC8.
On to `CC(C)(C)NC(=O)c1ccccc1C[C@@H](O)[C@H](Cc1ccccc1)NC(=O)[C@H](CC(=O)OCc1ccccc1)NC(=O)OC(C)(C)C` [Example 31A, [2R-(2R*,3S*,6S*)]-N-t-Butyl-2-[2-hydroxy-3-phenylmethyl-4-aza-5-oxo-6-N(t-butoxycarbonyl)amino-7-benzyloxycarbonyl]heptyl benzamide], for which the IC8 turned out to be 1 µg/mL.

Staying with this assay, now noted: read-out: Fluorescence Assay IC12.
Take `CC(=O)N[C@@H](CSCc1ccccc1)C(=O)N[C@@H](Cc1ccccc1)[C@H](O)Cc1ccccc1C(=O)NC(C)(C)C` [Example 32, [2R-(2R*,3S*,6R*)]-N-t-Butyl-2-[2-hydroxy-3-phenylmethyl-4-aza-5-oxo-6-N-(ethanoyl)amino-7-benzylthio]heptyl benzamide]: the IC12 amounted to 1 µg/mL.

The assay is the same for the next values; noted with them: read-out: Fluorescence Assay IC50 (converted).
For the compound `CN(C)S(=O)(=O)N[C@H](CC(=O)OCc1ccccc1)C(=O)N[C@@H](Cc1ccccc1)[C@H](O)Cc1ccccc1C(=O)NC(C)(C)C` [Example 5, [2R-(2R*, 3S *, 6R*)]-N-t-butyl-2-[2-hydroxy-3-phenylmethyl-4-aza-5-oxo-6-N(dimethylaminosulfonyl)amino-7-benzyloxycarbonyl]heptyl benzamide], the half-maximal inhibitory concentration (IC50) (in general, the concentration at which inhibition is half-maximal) is 8.58 nM.

Turning to `CC(C)(C)NC(=O)c1ccccc1C[C@@H](O)[C@H](Cc1ccccc1)NC(=O)[C@@H](CC(=O)NCc1ccccc1)NS(C)(=O)=O` [Example 10, [2R-(2R*, 3S*, 6R*)]-N-t-butyl-2-[2-hydroxy-3-phenylmethyl-4-aza-5-oxo-6-N(methylsulfonyl)amino-8-oxo-8-N(benzyl)amino]octyl benzamide], the IC50 was 4.34 nM.

Regarding `CC(=O)N[C@H](C[S+]([O-])c1ccc2ccccc2n1)C(=O)N[C@@H](Cc1ccccc1)[C@H](O)Cc1ccccc1C(=O)NC(C)(C)C` (stereo partly drawn) [Example 24B, [2R-(2R*,3S*,6S*)]-N-t-Butyl-2-[2-hydroxy-3-phenylmethyl-4-aza-5-oxo-6-N(ethanoyl)amino-7-quinolin-2-ylsulfinyl]heptyl benzamide], the concentration for half-maximal inhibition (IC50) is 0.207 nM.

On to `CC(C)(C)NC(=O)c1ccccc1C[C@@H](O)[C@H](Cc1ccccc1)NC(=O)[C@@H](C[S+]([O-])c1ccccc1)NS(C)(=O)=O` (stereo partly drawn) [Example 22E, [2R-(2R*,3S*,6S*)]-N-t-Butyl-2-[2-hydroxy-3-phenylmethyl-4-aza-5-oxo-6-N(methylsulfonyl)amino-7-phenylsulfinyl]heptyl benzamide], for which the IC50 is 0.978 nM.

`CC(C)(C)NC(=O)c1ccccc1C[C@@H](O)[C@H](Cc1ccccc1)NC(=O)[C@@H](CSc1ccc2ccccc2n1)NS(C)(=O)=O` [Example 23C, [2R-(2R*,3S*,6S*)]-N-t-Butyl-2-[2-hydroxy-3-phenylmethyl-4-aza-5-oxo-6-N(methylsulfonyl)amino-7-quinolin-2-ylthio]heptyl benzamide]: the IC50 is 25.9 nM.

On to `CC(=O)N[C@H](CSc1ccccc1)C(=O)N[C@@H](Cc1ccccc1)[C@H](O)Cc1ccccc1C(=O)NC(C)(C)C` (relative stereo) [Example 20A, [2R(2R*,3S*,6S*)]-N-t-Butyl-2-[2-hydroxy-3-phenylmethyl-4-aza-5-oxo-6-N(ethanoyl)amino-7-phenylthio]heptyl benzamide], for which the concentration for half-maximal inhibition (IC50) was 130 nM.

With `CC(=O)N[C@H](Cc1c[nH]c2ccccc12)C(=O)N[C@@H](Cc1ccccc1)[C@H](O)Cc1ccccc1C(=O)NC(C)(C)C` [Example 25, [2R-(2R*,3S*,6R*)]-N-t-Butyl-2-[2-hydroxy-3-phenylmethyl-4-aza-5-oxo-6-N-(ethanoyl)amino-7-indol-3-yl]heptyl benzamide], the concentration for half-maximal inhibition (IC50) was > 1760 nM.

In the case of `CC(=O)N[C@H](CC(=O)OCc1ccccc1)C(=O)N[C@@H](Cc1ccccc1)[C@H](O)Cc1ccccc1C(=O)NC(C)(C)C` [Example 1C, [2R-(2R*, 3S*, 6R*)1-N-t-Butyl-2-[2-hydroxy-3-phenylmethyl-4-aza-5-oxo-6-N(ethanoyl)amino-7-benzyloxycarbonyl]heptylbenzamide], the 50% inhibitory concentration (IC50) was 56.1 nM.

As to `CC(C)(C)NC(=O)c1ccccc1C[C@@H](O)[C@H](Cc1ccccc1)NC(=O)[C@@H](C[S+]([O-])c1ccc2ccccc2n1)NS(C)(=O)=O` (stereo partly drawn) [Example 23E, [2R-(2R*,3S*,6S*)]-N-t-Butyl-2-[2-hydroxy-3-phenylmethyl-4-aza-5-oxo-6-N(methylsulfonyl)amino-7-quinolin-2-ylsulfinyl]heptyl benzamide], the 50% inhibitory concentration (IC50) was 4.06 nM.

Turning to `CC(C)(C)NC(=O)c1ccccc1C[C@@H](O)[C@H](Cc1ccccc1)NC(=O)[C@@H](CSc1ccc2ccccc2c1)NS(C)(=O)=O` [Example 17A, [2R-(2R*, 3S*, 6S*)]-N-t-Butyl-2-[2-hydroxy-3-phenylmethyl-4-aza-5-oxo-6-N (methylsulfonyl)amine-7-naphth-2-ylthio]heptyl benzamide], the IC50 is 1.1 nM.

As to `CC(=O)N[C@H](CS(=O)(=O)c1ccc2ccccc2c1)C(=O)N[C@@H](Cc1ccccc1)[C@H](O)Cc1ccccc1C(=O)NC(C)(C)C` [Example 16B, [2R-(2R*,3S*,6S*)]-N-t-Butyl-2-[2-hydroxy-3-phenylmethyl-4-aza-5-oxo-6-N(ethanoyl)amino-7-naphth-2-ylsulfonyl]heptyl benzamide], the IC50 was 0.186 nM.
